Reference: ChEMBL document CHEMBL6153138, “Discovery of Novel Aromatic Urea-Imidazole Salt Derivatives for Cancer Therapy via Targeting ERK1/2” (J Med Chem, 2025)
pIC50: −log10 of the molar value. Active and inactive are the calls of the source. The calls are words filed in the database; no cut-off is given here.

Experiments:
MCF-10A = experiment: Antiproliferative activity against human MCF-10A cells incubated for 48 hrs by CCK-8 method; type: functional, cell-based
Mitochondrial membrane = experiment: Induction of mitochondrial membrane potential loss in human MCF7 cells assessed as increase in JC-1 monomers by measuring increase in green fluorescence at 2 uM by flow cytometry analysis (reference value: 38.0%); type: cell membranes
[1] = Toxicity in female BALB/c mouse assessed as effect ALB level in serum at 25 to 50 mg/kg, po qd measured after 18 days by biochemical analysis; type: organism-based; conditions: in vivo, 432 h, dose 25-50 mg/kg, time 18 day
[2] = Toxicity in female BALB/c mouse assessed as effect on spleen at 50 mg/kg, po qd measured after 18 days in presence of chloroquine by H and E staining based analysis; type: organism-based; conditions: in vivo, 432 h, time 18 day
[3] = AUC (0 to infinity) in Sprague-Dawley rat at 1 mg/kg, iv by LC-MS/MS analysis; type: ADME, organism-based; conditions: in vivo
4T1-Luc [4] = experiment: Anti-metastatic activity in mouse 4T1-Luc cells assessed as reduction in fluorescence intensity at 25 to 50 mg/kg, po measured after 16 days; type: functional, organism-based; conditions: dose 25-50 mg/kg, time 16.0 day
MCF7 [5] = experiment: Downregulation of total c-Myc expression in human MCF7 cells at 0.5 to 2 uM measured after 30 mins to 4 hrs by Western blot analysis; type: functional, cell-based; conditions: dose 0.5-2 µM, time 30-240 min
[6] = Toxicity in female BALB/c mouse assessed as effect on tumor at 25 to 50 mg/kg, po qd measured after 18 days by H and E staining based analysis; type: organism-based; conditions: in vivo, 432 h, dose 25-50 mg/kg, time 18 day
4T1 [7] = experiment: Antitumor activity against mouse 4T1 cells implanted in female BALB/c mouse model assessed as tumor growth inhibition at 50 mg/kg, po qd measured for 18 days in presence of chloroquine relative to control; type: functional; conditions: 4T1, 432 h, time 18 day, read-out: TGI
[8] = biological target: Mitogen-activated protein kinase; ERK1/ERK2 (Homo sapiens) (UniProt P27361+P28482); experiment: Binding affinity to ERK1/2 in human MCF7 cells assessed as protection of pronase-mediated protein degradation at 1 to 100 uM pre-incubated with compound for 1 hr followed by pronase digestion for 15 mins by DARTS analysis; type: cell-based; conditions: dose 1-100 µM, time 75.0 min
MCF7 [9] = experiment: Induction of autophagic flux in human MCF7 cells assessed as colocalization of LC3B at 1 uM incubated for 48 hrs in presence of chloroquine by immunofluorescence analysis; type: functional, cell-based
4T1-Luc [10] = experiment: Anti-metastatic activity in mouse 4T1-Luc cells assessed as reduction in destroyed alveolar wall at 25 to 50 mg/kg, po measured after 20 days by H and E staining based analysis; type: functional, organism-based; conditions: dose 25-50 mg/kg, time 20.0 day
4T1 [11] = experiment: Antitumor activity against mouse 4T1 cells implanted in female BALB/c mouse model assessed as increase in ERK1/2 phosphorylation at 50 mg/kg, po qd measured from 30 mins to 8 hrs by immunohistochemical analysis; type: functional, organism-based; conditions: time 30-480 min
4T1-Luc [12] = experiment: Anti-metastatic activity in mouse 4T1-Luc cells assessed as reduction in disruption of cell structure at 25 to 50 mg/kg, po measured after 20 days by H and E staining based analysis; type: functional, organism-based; conditions: dose 25-50 mg/kg, time 20.0 day
[13] = biological target: Mitogen-activated protein kinase 1 (Homo sapiens, UniProt P28482); experiment: Induction of thermal stabilization of ERK2 (unknown origin) at 10 uM by differential scanning fluorimetry analysis
MCF7 [14] = experiment: Induction of apoptosis in human MCF7 cells assessed as increase in Bax/Bcl-2 ratio at 0.5 to 2 uM by Western blot analysis; type: functional, cell-based; conditions: dose 0.5-2 µM
MCF7 [15] = experiment: Inhibition of proliferation in human MCF7 cells at 0.5 to 2 uM incubated for 48 hrs by EdU incorporation assay; type: functional, cell-based; conditions: dose 0.5-2 µM
MCF7 [16] = experiment: Induction of apoptosis in human MCF7 cells assessed as late apoptotic cells at 1 uM incubated for 48 hrs by Annexin V/FITC and PI staining based flow cytometry analysis (reference value: 3.65%); type: functional
[17] = Half life in Sprague-Dawley rat at 1 mg/kg, iv by LC-MS/MS analysis; type: ADME, organism-based; conditions: in vivo
[18] = Toxicity in female BALB/c mouse assessed as effect on lung at 25 to 50 mg/kg, po qd measured after 18 days by H and E staining based analysis; type: organism-based; conditions: in vivo, 432 h, dose 25-50 mg/kg, time 18 day
[19] = biological target: T1, Mitogen-activated protein kinase 3 (Homo sapiens, UniProt P27361); experiment: Induction of thermal stabilization of ERK1 (unknown origin) at 10 uM by differential scanning fluorimetry analysis
[20] = Toxicity in female BALB/c mouse assessed as effect TG level in serum at 25 to 50 mg/kg, po qd measured after 18 days by biochemical analysis; type: organism-based; conditions: in vivo, 432 h, dose 25-50 mg/kg, time 18 day
[21] = biological target: T1, Mitogen-activated protein kinase 3; experiment: Inhibition of ERK1 (unknown origin) incubated for 60 mins by luminescence based ADP-Glo kinase assay
4T1 [22] = experiment: Antitumor activity against mouse 4T1 cells implanted in female BALB/c mouse model assessed as tumor necrosis at 25 to 50 mg/kg, po qd measured for 18 days by H and E staining based analysis; type: functional, organism-based; conditions: dose 25-50 mg/kg, time 18.0 day
[23] = Toxicity in female BALB/c mouse assessed as effect on heart at 25 to 50 mg/kg, po qd measured after 18 days by H and E staining based analysis; type: organism-based; conditions: in vivo, 432 h, dose 25-50 mg/kg, time 18 day
MCF7 [24] = experiment: Induction of autophagy in human MCF7 cells assessed as upregulation of LC3B-II expression incubated for 48 hrs by Western blotting analysis; type: functional, cell-based; conditions: dose 0.5-2 µM
MCF7 [25] = experiment: Upregulation of ERK1/2 phosphorylation expression in human MCF7 cells measured after 30 mins to 4 hrs by Western blot analysis; type: functional, cell-based; conditions: dose 0.5-2 µM, time 30-240 min
[26] = Toxicity in female BALB/c mouse assessed as effect CHO level in serum at 25 to 50 mg/kg, po qd measured after 18 days by biochemical analysis; type: organism-based; conditions: in vivo, 432 h, dose 25-50 mg/kg, time 18 day
MCF7 [27] = experiment: Induction of apoptosis in human MCF7 cells assessed as increase in PARP1 level at 0.5 to 2 uM by Western blot analysis; type: functional, cell-based; conditions: dose 0.5-2 µM
[28] = AUC (0 to t) in Sprague-Dawley rat at 1 mg/kg, iv by LC-MS/MS analysis; type: ADME, organism-based; conditions: in vivo
MCF7 [29] = experiment: Activation of ERK1/2 pathway in human MCF7 cells assessed as increase in EGF-induced p90RSK phosphorylation at 2 uM incubated for 30 mins by Western blot analysis; type: cell-based
MCF7 [30] = experiment: Downregulation of vimentin expression in human MCF7 cells at 0.5 to 2 uM; type: functional, cell-based; conditions: dose 0.5-2 µM
[31] = AUC (0 to infinity) in Sprague-Dawley rat at 10 mg/kg, po by LC-MS/MS analysis; type: ADME, organism-based; conditions: in vivo
MCF7 [32] = experiment: Antiproliferative activity against human MCF7 cells harbouring ERK2 knockout incubated for 48 hrs by CCK-8 method; type: functional, cell-based
MCF7 [33] = experiment: Antiproliferative activity against human MCF7 cells incubated for 48 hrs by CCK-8 method; type: functional, cell-based; conditions: MCF7, 48 h
MCF7 [34] = experiment: Induction of apoptosis in human MCF7 cells assessed as late apoptotic cells at 1 uM incubated for 48 hrs by Annexin V/FITC and PI staining based flow cytometry analysis (reference value: 2.5%); type: functional

T1 sequence (P27361 whole entry): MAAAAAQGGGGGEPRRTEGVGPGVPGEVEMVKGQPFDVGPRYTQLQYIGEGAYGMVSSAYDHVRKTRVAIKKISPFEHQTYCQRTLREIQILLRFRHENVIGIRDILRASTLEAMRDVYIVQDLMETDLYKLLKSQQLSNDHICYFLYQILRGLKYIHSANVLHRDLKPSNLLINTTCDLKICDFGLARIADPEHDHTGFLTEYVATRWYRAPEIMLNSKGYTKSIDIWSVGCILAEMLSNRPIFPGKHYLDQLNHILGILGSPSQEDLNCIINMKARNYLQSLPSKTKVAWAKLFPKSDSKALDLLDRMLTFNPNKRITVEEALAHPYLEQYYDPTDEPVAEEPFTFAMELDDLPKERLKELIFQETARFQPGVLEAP
Chain of Mitogen-activated protein kinase 1 (P28482 whole entry): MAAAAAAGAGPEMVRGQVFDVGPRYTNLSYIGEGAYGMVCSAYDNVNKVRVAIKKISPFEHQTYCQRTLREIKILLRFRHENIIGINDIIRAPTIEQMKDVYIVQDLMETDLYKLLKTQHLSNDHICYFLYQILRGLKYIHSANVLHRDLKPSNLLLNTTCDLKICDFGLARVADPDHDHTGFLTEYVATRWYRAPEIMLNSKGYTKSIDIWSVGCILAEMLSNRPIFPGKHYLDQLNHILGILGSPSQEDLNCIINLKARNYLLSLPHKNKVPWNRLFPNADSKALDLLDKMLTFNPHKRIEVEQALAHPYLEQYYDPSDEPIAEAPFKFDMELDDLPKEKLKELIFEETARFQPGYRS
Chain of Mitogen-activated protein kinase; ERK1/ERK2 (Homo sapiens) (P27361 whole entry, looked up): as the sequence (P27361 whole entry) above
Chain of Mitogen-activated protein kinase; ERK1/ERK2 (Homo sapiens) (P28482 whole entry, looked up): as the sequence (P28482 whole entry) above

- Activity (Mitochondrial membrane): 52.4%
- AUC(0-inf) [3]: 1100 ng·h/mL
- Activity [8]: Active
- Activity [13]: Active
- half-life [17]: 3.15 h
- Activity [19]: Active
- pIC50 [21]: 7.04
- AUC(0-t) [28]: 1040 ng·h/mL
- AUC(0-inf) [31]: 4080 ng·h/mL
- pIC50 (MCF7 [33]): 6.17
SMILES: O=C(Nc1cc(C(F)(F)F)cc(C(F)(F)F)c1)N[C@@H](Cc1ccccc1)Cn1c[n+](Cc2ccc3ccccc3c2)c2ccccc21.[Br-]
- pIC50 (MCF-10A): < 5.00
- Activity [1]: Non-toxic
- Activity [2]: Non-toxic
- Activity (4T1-Luc [4]): Active
- Activity (MCF7 [5]): Active
- Activity [6]: Non-toxic
- inhibition in vivo at 50 mg/kg (4T1 [7]): 88.1%
- Activity (MCF7 [9]): Active
- Activity (4T1-Luc [10]): Active
- Activity (4T1 [11]): Active
- Activity (4T1-Luc [12]): Active
- Activity (MCF7 [14]): Active
- inhibition (MCF7 [15]): Active
- Activity (MCF7 [16]): 13.7%
- Activity [18]: Non-toxic
- Activity [20]: Non-toxic
- Activity (4T1 [22]): Active
- Activity [23]: Non-toxic
- Activity (MCF7 [24]): Dose-dependent-effect
- Activity (MCF7 [25]): Dose-dependent-effect
- Activity [26]: Non-toxic
- Activity (MCF7 [27]): Active
- Activity (MCF7 [29]): inactive
- Activity (MCF7 [30]): Active
- Activity (MCF7 [32]): Not active; Compound Showed Less Sensitivity Response
- Activity (MCF7 [34]): 9.6%
